From patent US20240067651A1 (Biohaven Therapeutics Ltd., priority 2019, published 2024)
Blank lines part the entries; values can stand above or below the compound they belong to.

Experiments:
[1] = Stability in Simulated Intestinal Fluid (SIF); assay type: in vitro ADME; parameters: key: % parent compound remaining relative to 0-minute sample
In short: (§1)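 Compound at 2 μg/mL final was incubated at 37° C with orbital shaking in SGF containing pepsin (pH 1.2) or SIF containing pancreatin (pH 6.8), sampled from 0 to 60 minutes. Parent remaining was measured by LC-MS/MS relative to the 0-minute sample; half-life came from ln(% remaining) versus time when enough points existed.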

[2] = Stability in Simulated Gastric Fluid (SGF); assay type: in vitro ADME; parameters: key: % parent compound remaining relative to 0-minute sample
In short: as §1

[3] = Plasma Stability; assay type: in vitro ADME, human
In short: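 Compounds incubated at 1 μM in fresh human plasma for 1 hour at 37° C, then protein-precipitated with acetonitrile/formic acid containing internal standard. Remaining parent measured by LC-MS/MS in triplicate, expressed as percent of control remaining.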

[4] = Caco-2 Permeability Assay; assay type: in vitro ADME, human; conditions: human
In short: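 Caco-2 monolayers cultured 21 days (TEER >600 […]); test article at 10 μM in HBSS/HEPES pH 7.4 transport medium, dosed apical or basolateral, ±Pgp inhibitor. Incubated 90 min at 37 °C; both compartments quantified by LC-MS/MS. Papp (A→B, B→A), efflux ratio and % recovery calculated.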

[5] = % remaining at 1 h, SIF with pancreatin pH 6.8, 2 μg/mL, 37° C.
[6] = % remaining at 1 h, SGF with pepsin pH 1.2, 2 μg/mL, 37° C.
[7] = % remaining at 1 h, human plasma, 1 μM, 37° C.
[8] = Caco-2, pH 7.4, no unit printed at the place (tables the 9th table and the 10th table have no head)
[9] = % @ 1 h (remaining) in simulated intestinal fluid
[10] = % @ 1 h (remaining) in simulated gastric fluid
[11] = % @ 1 h (remaining) in human plasma
[12] = Caco-2, pH 7.4, Caco-2 monolayer
[13] = % remaining at 1 h in simulated intestinal fluid
[14] = % remaining at 1 h in simulated gastric fluid
[15] = % remaining at 1 h in human plasma
[16] = Caco-2, pH 7.4, donor 10 μM, 90 minutes, 37° C., direction not given
[17] = bare number, unit or time not given

- SIF [1, 5]: 84%
- SGF [2, 6]: 95%
- human Plasma stability [3, 7]: 14%
- Papp at 90 min, 10 µM [4, 8]: 24.3 ×10⁻⁶ cm/s
SMILES: COCCOCCOC(=O)OCn1ccc2c1c(=O)[nH]c(=S)n2CCOC(C)C [Example 105, 2-(2-methoxyethoxy)ethyl {4-oxo-1-[2-(propan-2-yloxy)ethyl]-2-sulfanylidene-1H,2H,3H,4H,5H-pyrrolo[3,2-d]pyrimidin-5-yl}methyl carbonate]

- SIF [1, 9]: 95% @ 1 h
- SGF [2, 10]: 100% @ 1 h
- human Plasma stability [3, 11]: 98% @ 1 h
- Papp at 90 min, 10 µM [4, 12]: 23.7 ×10⁻⁶ cm/s
SMILES: CC(C)CN(C)C(=O)OCSc1nc(=O)c2[nH]ccc2n1CCOC(C)C [Example 172]

- SIF [1, 13]: 71% remaining
- SGF [2, 14]: 9% remaining
- human Plasma stability [3, 15]: 11% remaining
- Papp at 90 min, 10 µM [4, 12]: 4.29 ×10⁻⁶ cm/s
SMILES: CC(C)OCCn1c(=S)n(COC(=O)C2CCN(C(=O)OC(C)(C)C)CC2)c(=O)c2c1ccn2COC(=O)CCC(=O)OC(C)(C)C [Example 132]

- SIF [1, 9]: 1% @ 1 h
- SGF [2, 10]: 99% @ 1 h
- human Plasma stability [3, 11]: 0% @ 1 h
- Papp at 90 min, 10 µM [4, 12]: 6.55 ×10⁻⁶ cm/s
SMILES: CCC(=O)OCn1ccc2c1c(=O)[nH]c(=S)n2CCOC(C)C [Example 156]

- SIF ([1]; simulated intestinal fluid, at 1 h): 1% remaining
- SGF ([2]; simulated gastric fluid, at 1 h): 13% remaining
- human Plasma stability ([3]; human plasma, at 1 h): 1% remaining
- Papp at 90 min, 10 µM [4, 12]: < 0.339 ×10⁻⁶ cm/s
SMILES: CC(C)OCCn1c(=S)[nH]c(=O)c2c1ccn2COC(=O)Oc1ccccc1F [Example 238]

- SIF [1, 5]: 98%
- SGF [2, 6]: 94%
- human Plasma stability [3, 7]: 90%
- Papp at 90 min, 10 µM [4, 16]: 31.7 ×10⁻⁶ cm/s
SMILES: CC(C)OCCn1c2nc(=O)c3c1ccn3COC(=O)C(C)(C)CCCCC(C)(C)C(=O)OCS2 [Example 119, 8,8,13,13-Tetramethyl-22-[2-(propan-2-yloxy)ethyl]-6,15-dioxa-17-thia-4,19,22-triazatricyclo[16.3.1.0^{4,21}]docosa-1(21),2,18-triene-7,14,20-trione]

- SIF ([1]; % remaining at 1 h in simulated intestinal fluid, the 15th table): 57% remaining
- SGF ([2]; % remaining at 1 h in simulated gastric fluid, the 15th table): 98% remaining
- human Plasma stability ([3]; % remaining at 1 h in human plasma, the 15th table): 95% remaining
- Papp at 90 min, 10 µM ([4]; Caco-2, pH 7.4, Caco-2 monolayer, the 15th table): 31.6 ×10⁻⁶ cm/s
SMILES: CC(C)OCCn1c(SCOC(=O)NCc2ccccc2)nc(=O)c2c1ccn2C(=O)NCc1ccccc1 [Example 193]

- SIF [1, 5]: 97% remaining
- SGF [2, 6]: 100% remaining
- human Plasma stability [3, 7]: 97% remaining
- Papp at 90 min, 10 µM [4, 16]: 18.3 ×10⁻⁶ cm/s
SMILES: CC(C)OCCn1c(SCOC(=O)N(C)c2cccc(F)c2)nc(=O)c2[nH]ccc21 [Example 210, ({4-oxo-1-[2-(propan-2-yloxy)ethyl]-1H,4H,5H-pyrrolo[3,2-d]pyrimidin-2-yl}sulfanyl)methyl N-(3-fluorophenyl)-N-methylcarbamate]

Continued, compound first:

SMILES: COCCOCCOC(=O)OCSc1nc(=O)c2c(ccn2COC(=O)OCCOCCOC)n1CCOC(C)C [Example 104, (2-{[{{[2-(2-methoxyethoxy)ethoxy]carbonyl}oxy)methyl]sulfanyl}-4-oxo-1-[2-(propan-2-yloxy)ethyl]-1H,4H,5H-pyrrolo[3,2-d]pyrimidin-5-yl)methyl 2-(2-methoxyethoxy)ethyl carbonate]
- SIF [1, 5]: 70%
- SGF [2, 6]: 96%
- human Plasma stability [3, 7]: 18%
- Papp at 90 min, 10 µM [4, 8]: 0.276 ×10⁻⁶ cm/s

SMILES: CC(C)C[C@@H](NC(=O)OC(C)(C)C)C(=O)OCn1ccc2c1c(=O)[nH]c(=S)n2CCOC(C)C [Example 317, {4-oxo-1-[2-(propan-2-yloxy)ethyl]-2-sulfanylidene-1H,2H,3H,4H,5H-pyrrolo[3,2-d]pyrimidin-5-yl}methyl (2R)-2-{[(tert-butoxy)carbonyl]amino}-4-methylpentanoate]
- SIF ([1]; % remaining @ 1 h): 30%@ 1 h
- SGF ([2]; % remaining @ 1 h): 56%@ 1 h
- human Plasma stability ([3]; % remaining @ 1 h): 99%@ 1 h
- Papp at 90 min, 10 µM ([4]; Caco-2, pH 7.4): 0.093 ×10⁻⁶ cm/s

SMILES: CC(C)OCCn1c(=S)[nH]c(=O)c2c1ccn2COC(=O)CCNC(=O)[C@H](Cc1c[nH]c2ccccc12)NC(=O)OC(C)(C)C.O=C(O)C(F)(F)F [Example 48]
- SIF [1, 13]: 89% remaining
- SGF [2, 14]: 90% remaining
- human Plasma stability [3, 15]: 74% remaining
- Papp at 90 min, 10 µM [4, 12]: 5.93 ×10⁻⁶ cm/s

SMILES: CC(C)OCCn1c(SCOC(=O)N(C)CCc2ccccc2)nc(=O)c2c1ccn2COC(=O)N(C)CCc1ccccc1.O=C(O)C(F)(F)F [Example 176]
- SIF [1, 9]: 100% @ 1 h
- SGF [2, 10]: 86% @ 1 h
- human Plasma stability [3, 11]: 99% @ 1 h
- Papp at 90 min, 10 µM [4, 12]: 40.4 ×10⁻⁶ cm/s

SMILES: CC(C)OCCn1c(=S)[nH]c(=O)c2c1ccn2COC(=O)CCCCNC(=O)[C@H](Cc1c[nH]c2ccccc12)NC(=O)OC(C)(C)C.O=C(O)C(F)(F)F [Example 47]
- SIF [1, 13]: 46% remaining
- SGF [2, 14]: 99% remaining
- human Plasma stability [3, 15]: 78% remaining
- Papp at 90 min, 10 µM [4, 12]: 9.15 ×10⁻⁶ cm/s

SMILES: CC(C)OCCn1c(=S)[nH]c(=O)c2c1ccn2COC(=O)CCNC(=O)[C@H](CO)NC(=O)OC(C)(C)C.O=C(O)C(F)(F)F [Example 42]
- SIF [1, 13]: 75% remaining
- SGF [2, 14]: 86% remaining
- human Plasma stability [3, 15]: 51% remaining
- Papp at 90 min, 10 µM [4, 12]: 0.507 ×10⁻⁶ cm/s

SMILES: CC(C)OCCn1c(=S)n(COCC[Si](C)(C)C)c(=O)c2[nH]ccc21 [Example 70, 1-[2-(Propan-2-yloxy)ethyl]-2-sulfanylidene-3-{[2-(trimethylsilyl)ethoxy]methyl}-1H,2H,3H,4H,5H-pyrrolo[3,2-d]pyrimidin-4-one]
- SIF [1, 5]: 99%
- SGF [2, 6]: 96%
- human Plasma stability [3, 7]: 99%
- Papp at 90 min, 10 µM [4, 8]: 23.2 ×10⁻⁶ cm/s

SMILES: CC(C)OCCn1c(=S)[nH]c(=O)c2c1ccn2COC(=O)CCCCOC(=O)[C@@H](N)Cc1ccccc1.O=C(O)C(F)(F)F [Example 340, trifluoroacetic acid {4-oxo-1-[2-(propan-2-yloxy)ethyl]-2-sulfanylidene-1H,2H,3H,4H,5H-pyrrolo[3,2-d]pyrimidin-5-yl}methyl 5-{[(2S)-2-amino-3-phenylpropanoyl]oxy}pentanoate]
- SIF [1, 17]: 99
- SGF [2, 17]: 100
- human Plasma stability ([3]; % remaining @ 1 h): 4% remaining
- Papp at 90 min, 10 µM ([4]; Caco-2, pH 7.4): 0.644 ×10⁻⁶ cm/s

SMILES: CC(C)OCCn1c(=S)n(COC(=O)[C@H](N)Cc2ccccc2)c(=O)c2c1ccn2COC(=O)[C@H](N)Cc1ccccc1.O=C(O)C(F)(F)F.O=C(O)C(F)(F)F [Example 313, bis(trifluoroacetic acid) [3-({[(2R)-2-amino-3-phenylpropanoyl]oxy}methyl)-4-oxo-1-[2-(propan-2-yloxy)ethyl]-2-sulfanylidene-1H,2H,3H,4H,5H-pyrrolo[3,2-d]pyrimidin-5-yl]methyl (2R)-2-amino-3-phenylpropanoate]
- SIF ([1]; % remaining @ 1 h): 51% @ 1 h
- SGF ([2]; % remaining @ 1 h): 88% @ 1 h
- human Plasma stability ([3]; % remaining @ 1 h): 99% @ 1 h
- Papp at 90 min, 10 µM ([4]; Caco-2, pH 7.4): 0.49 ×10⁻⁶ cm/s

SMILES: CC(C)OCCn1c(=S)[nH]c(=O)c2c1ccn2COC(=O)CCN [Example 8, Trifluoroacetic acid {4-oxo-1-[2-(propan-2-yloxy)ethyl]-2-sulfanylidene-1H,2H,3H,4H,5H-pyrrolo[3,2-d]pyrimidin-5-yl}methyl 3-aminopropanoate]
- SIF [1, 5]: 68%
- SGF [2, 6]: 97%
- human Plasma stability [3, 7]: 45%
- Papp at 90 min, 10 µM [4, 16]: 0.46 ×10⁻⁶ cm/s

SMILES: CC(C)C[C@H](NC(=O)OC(C)(C)C)C(=O)NCCCCC(=O)OCn1ccc2c1c(=O)[nH]c(=S)n2CCOC(C)C [Example 26]
- SIF [1, 13]: 66% remaining
- SGF [2, 14]: 99% remaining
- human Plasma stability [3, 15]: 32% remaining
- Papp at 90 min, 10 µM [4, 12]: 12.7 ×10⁻⁶ cm/s

SMILES: CC(C)OCCn1c(SCOC(=O)CCCCOC(=O)CN)nc(=O)c2c1ccn2COC(=O)CCCCOC(=O)CN.O=C(O)C(F)(F)F.O=C(O)C(F)(F)F [Example 331, bis (trifluoroacetic acid) ({5-[{{5-[(2-aminoacetyl)oxy]pentanoyl}oxy)meth-yl]-4-oxo-1-[2-(propan-2-yloxy)ethyl]-1H,4H,5H-pyrrolo[3,2-d]pyrimidin-2-yl}sulfanyl)methyl 5-[(2-aminoacetyl)oxy]pentanoate]
- SIF ([1]; % remaining @ 1 h): 1% @ 1 h
- SGF ([2]; % remaining @ 1 h): 93% @ 1 h
- human Plasma stability ([3]; % remaining @ 1 h): 1% @ 1 h
- Papp at 90 min, 10 µM ([4]; Caco-2, pH 7.4): 3.68 ×10⁻⁶ cm/s

SMILES: CC(C)OCCn1c(=S)[nH]c(=O)c2c1ccn2COC(=O)CCCCNC(=O)[C@@H](N)Cc1ccc(O)cc1.O=C(O)C(F)(F)F [Example 49]
- SIF [1, 13]: 92% remaining
- SGF [2, 14]: 99% remaining
- human Plasma stability [3, 15]: 1% remaining
- Papp at 90 min, 10 µM [4, 12]: 0.154 ×10⁻⁶ cm/s

SMILES: CSCC[C@H](NC(=O)OC(C)(C)C)C(=O)OCCCCC(=O)OCn1ccc2c1c(=O)[nH]c(=S)n2CCOC(C)C [Example 352, {4-oxo-1-[2-(propan-2-yloxy)ethyl]-2-sulfanylidene-1H,2H,3H,4H,5H-pyrrolo[3,2-d]pyrimidin-5-yl}methyl 5-{[(2S)-2-{[(tert-butoxy)carbonyl]amino}-4-(methylsulfanyl)butanoyl]oxy}pentanoate]
- SIF ([1]; simulated intestinal fluid, remaining at 1 h): 9% remaining
- SGF ([2]; simulated gastric fluid, remaining at 1 h): 92% remaining
- human Plasma stability ([3]; human plasma, remaining at 1 h): 9% remaining
- Papp at 90 min, 10 µM [4, 12]: 2.03 ×10⁻⁶ cm/s
